Measured values reported in patent US10952992B2, “Methods of treating intraocular pressure with activators of Tie-2” (Aerpio Pharmaceuticals, Inc., priority 2015, dated 2021).
Values joined by “and” are separate entries in the source; they are usually repeats but may differ in a detail not shown here. Equal values may be shown once.

Assay: Example 2 iris, retina, choroid and cornea tissue concentrations
Assay type: in vivo, male New Zealand White rabbits
Conditions: for Choroid Conc. OS / Choroid Conc. OD: choroid homogenate; for Choroid Conc. OS / Choroid tissue Conc. OS / Cornea Conc. OS / Cornea tissue Conc. OS / Iris Conc. OS / Iris tissue Conc. OS / Retina Conc. OS / Retina tissue Conc. OS: left eye; for Choroid Conc. OS / Choroid Conc. OD / Choroid tissue Conc. OS / Choroid tissue Conc. OD / Cornea Conc. OS / Cornea Conc. OD / Cornea tissue Conc. OS / Cornea tissue Conc. OD / Iris Conc. OS / Iris Conc. OD / Iris tissue Conc. OS / Iris tissue Conc. OD / Retina Conc. OS / Retina Conc. OD / Retina tissue Conc. OS / Retina tissue Conc. OD: individual animals; for Choroid Conc. OS / Choroid Conc. OD / Choroid tissue Conc. Avg. / Choroid tissue Conc. OS / Choroid tissue Conc. OD / Cornea Conc. OS / Cornea Conc. OD / Cornea tissue Conc. Avg. / Cornea tissue Conc. OS / Cornea tissue Conc. OD / Iris Conc. OS / Iris Conc. OD / Iris tissue Conc. Avg. / Iris tissue Conc. OS / Iris tissue Conc. OD / Retina Conc. OS / Retina Conc. OD / Retina tissue Conc. Avg. / Retina tissue Conc. OS / Retina tissue Conc. OD: intravitreal 2.5 mg/eye (~1.54 mg/kg), group 5; for Choroid Conc. OD / Choroid tissue Conc. OD / Cornea Conc. OD / Cornea tissue Conc. OD / Iris Conc. OD / Iris tissue Conc. OD / Retina Conc. OD / Retina tissue Conc. OD: right eye; for Choroid tissue Conc. Avg. / Cornea tissue Conc. Avg. / Iris tissue Conc. Avg. / Retina tissue Conc. Avg.: average; for Cornea Conc. OS / Cornea Conc. OD: cornea homogenate; for Iris Conc. OS / Iris Conc. OD: iris homogenate; for Retina Conc. OS / Retina Conc. OD: retina homogenate
Experimental: To measure the concentration of Compound 1 in plasma and ocular tissues following topical ocular, subcutaneous, and intravitreal administration, New Zealand White rabbits were administered Compound 1, and plasma and ocular samples were collected at pre-determined time points. Compound 1 formulations were prepared fresh on each day of dosing.
Ocular tissue samples from both eyes of each animal were collected and weights were recorded. Plasma and ocular tissue sample concentrations of Compound 1 were determined by LC-MS/MS.
Animals were anesthetized for ocular (topical) and intravitreal dosing following the 12IA7 IACUC protocol. Each rabbit received a bolus dose of test formulation either via topical ocular administration 3 times daily on Days 1 and 2 (at 0, 6, and 12 hours), and once on Day 3 (at 0 hours) into both eyes; via intravitreal administration into both eyes once on Day 1 (at 0 hours); or via subcutaneous administration 2 times daily on Days 1 and 2 (at 0 and 8 hours) and once daily on Day 3 (at 0 hours). Doses were given within an approximately 1 hour window each day where applicable.
On Day 1, for intravitreal administration, or on Day 3, for topical ocular and subcutaneous administration, at the appropriate ocular tissue collection time points, animals were euthanized and both eyes were enucleated immediately. Following enucleation, each eye was rinsed with phosphate-buffered saline. Ocular tissue samples from both eyes of each animal were collected at predetermined time points and weights were recorded. All the samples were frozen immediately on dry ice, and stored at −60° C. to −80° C. pending bioanalysis.
An LC-MS/MS method was developed for the determination of Compound 1 in rabbit aqueous tissues (plasma, aqueous and vitreous humor) and solid ocular tissue samples. A pre-study standard curve was analyzed to determine the specificity, range, and lower limit of quantitation of the method. Plasma and tissue homogenate study samples were extracted and analyzed. All the samples were treated identically to the standards.
One eight-point standard curve was used in each analytical batch. To be accepted, each batch must have had at least five of eight standards with accuracy within ±20% of nominal, except at the lower limit of quantification (LLOQ), where ±25% was acceptable.

Choroid Conc. OS (24 hr): 28400 ng/mL and 43500 ng/mL | Choroid Conc. OD (24 hr): 15200 ng/mL and 57500 ng/mL | Choroid Conc. OS (48 hr): 9320 ng/mL and 14800 ng/mL | Choroid Conc. OD (48 hr): 9940 ng/mL and 9580 ng/mL | Choroid Conc. OS (72 hr): 2660 ng/mL and 2910 ng/mL | Choroid Conc. OD (72 hr): 2180 ng/mL and 2270 ng/mL | Choroid tissue Conc. Avg. (6.0 hr): 663575 ng/g | Choroid tissue Conc. OS (6.0 hr): 697400 ng/g and 766700 ng/g | Choroid tissue Conc. OD (6.0 hr): 360800 ng/g and 829400 ng/g | Choroid tissue Conc. Avg. (24 hr): 397650 ng/g | Choroid tissue Conc. OS (24 hr): 312400 ng/g and 478500 ng/g | Choroid tissue Conc. OD (24 hr): 167200 ng/g and 632500 ng/g | Choroid tissue Conc. Avg. (48 hr): 120010 ng/g | Choroid tissue Conc. OS (48 hr): 102520 ng/g | Choroid tissue Conc. OD (48 hr): 109340 ng/g and 105380 ng/g | Choroid tissue Conc. Avg. (72 hr): 27555 ng/g | Choroid tissue Conc. OS (72 hr): 29260 ng/g and 32010 ng/g | Choroid tissue Conc. OD (72 hr): 23980 ng/g and 24970 ng/g | Cornea Conc. OS (6.0 hr): 3140 ng/mL and 1180 ng/mL | Cornea Conc. OD (6.0 hr): 7910 ng/mL and 7610 ng/mL | Cornea Conc. OS (24 hr): 1190 ng/mL and 1050 ng/mL | Cornea Conc. OD (24 hr): 1520 ng/mL and 2520 ng/mL | Cornea Conc. OS (48 hr): 293 ng/mL and 571 ng/mL | Cornea Conc. OD (48 hr): 437 ng/mL and 384 ng/mL | Cornea Conc. OS (72 hr): 117 ng/mL and 45.3 ng/mL | Cornea Conc. OD (72 hr): 37.7 ng/mL and 77.2 ng/mL | Cornea tissue Conc. Avg. (6.0 hr): 54560 ng/g | Cornea tissue Conc. OS (6.0 hr): 34540 ng/g and 12980 ng/g | Cornea tissue Conc. OD (6.0 hr): 87010 ng/g and 83710 ng/g | Cornea tissue Conc. Avg. (24 hr): 17270 ng/g | Cornea tissue Conc. OS (24 hr): 13090 ng/g and 11550 ng/g | Cornea tissue Conc. OD (24 hr): 16720 ng/g and 27720 ng/g | Cornea tissue Conc. Avg. (48 hr): 4634 ng/g | Cornea tissue Conc. OS (48 hr): 3223 ng/g and 6281 ng/g | Cornea tissue Conc. OD (48 hr): 4807 ng/g and 4224 ng/g | Cornea tissue Conc. Avg. (72 hr): 762 ng/g | Cornea tissue Conc. OS (72 hr): 1287 ng/g and 498 ng/g | Cornea tissue Conc. OD (72 hr): 415 ng/g and 849 ng/g | ocular tissue concentrations at 72 hours, free acid suspension relative to sodium salt solution (intravitreal administration): higher concentrations | Iris Conc. OS (6.0 hr): 13800 ng/mL and 12200 ng/mL | Iris Conc. OD (6.0 hr): 18500 ng/mL and 32100 ng/mL | Iris Conc. OS (24 hr): 14100 ng/mL and 8200 ng/mL | Iris Conc. OD (24 hr): 7670 ng/mL and 11000 ng/mL | Iris Conc. OS (48 hr): 1950 ng/mL and 2030 ng/mL | Iris Conc. OD (48 hr): 1010 ng/mL and 1110 ng/mL | Iris Conc. OS (72 hr): 1800 ng/mL and 1320 ng/mL | Iris Conc. OD (72 hr): 279 ng/mL and 351 ng/mL | Iris tissue Conc. Avg. (6.0 hr): 210650 ng/g | Iris tissue Conc. OS (6.0 hr): 151800 ng/g and 134200 ng/g | Iris tissue Conc. OD (6.0 hr): 203500 ng/g and 353100 ng/g | Iris tissue Conc. Avg. (24 hr): 112668 ng/g | Iris tissue Conc. OS (24 hr): 155100 ng/g and 90200 ng/g | Iris tissue Conc. OD (24 hr): 84370 ng/g and 121000 ng/g | Iris tissue Conc. Avg. (48 hr): 16775 ng/g | Iris tissue Conc. OS (48 hr): 21450 ng/g and 22330 ng/g | Iris tissue Conc. OD (48 hr): 11110 ng/g and 12210 ng/g | Iris tissue Conc. Avg. (72 hr): 10313 ng/g | Iris tissue Conc. OS (72 hr): 19800 ng/g and 14520 ng/g | Iris tissue Conc. OD (72 hr): 3069 ng/g and 3861 ng/g | Retina Conc. OS (6.0 hr): 154000 ng/mL and 120000 ng/mL | Retina Conc. OD (6.0 hr): 146000 ng/mL and 303000 ng/mL | Retina Conc. OS (24 hr): 98900 ng/mL and 198000 ng/mL | Retina Conc. OD (24 hr): 130000 ng/mL and 145000 ng/mL | Retina Conc. OS (48 hr): 14000 ng/mL and 101000 ng/mL | Retina Conc. OD (48 hr): 66700 ng/mL and 65500 ng/mL | Retina Conc. OS (72 hr): 10800 ng/mL and 12900 ng/mL | Retina Conc. OD (72 hr): 9890 ng/mL and 6070 ng/mL | Retina tissue Conc. Avg. (6.0 hr): 1988250 ng/g | Retina tissue Conc. OS (6.0 hr): 1694000 ng/g and 1320000 ng/g | Retina tissue Conc. OD (6.0 hr): 1606000 ng/g | Retina tissue Conc. Avg. (24 hr): 1572725 ng/g | Retina tissue Conc. OS (24 hr): 1087900 ng/g and 2178000 ng/g | Retina tissue Conc. OD (24 hr): 1430000 ng/g and 1595000 ng/g | Retina tissue Conc. Avg. (48 hr): 679800 ng/g | Retina tissue Conc. OS (48 hr): 154000 ng/g and 1111000 ng/g | Retina tissue Conc. OD (48 hr): 733700 ng/g and 720500 ng/g | Retina tissue Conc. Avg. (72 hr): 109065 ng/g | Retina tissue Conc. OS (72 hr): 118800 ng/g and 141900 ng/g | Retina tissue Conc. OD (72 hr): 108790 ng/g and 66770 ng/g | distribution among iris, retina, choroid, cornea (FIG. 14) (subcutaneous 5 mg/kg/dose, free acid): generally higher in the iris and choroid
Structure (SMILES): COC(=O)N[C@@H](Cc1ccccc1)C(=O)N[C@@H](Cc1ccc(NS(=O)(=O)O)cc1)c1csc(-c2cccs2)n1 [Compound 1 free acid]
distribution among iris, retina, choroid, cornea (FIG. 16) (intravitreal 1.54 mg/kg, free acid): generally higher in the retina and choroid
